Experimental data as given in patent publication US20110020434A1, “NANOPARTICLE ARSENIC-PLATINUM COMPOSITIONS” (priority 2005, published 2011).
Read-outs that look alike come from different tables or passages of the source.

Columns and labels:
[1] = tested on: IM-9 (human lymphoblast B cells); format: cell-based; conditions: 48 h drug treatment
Text: (§1) Cell culture. SU-DHL-4 (human lymphoma B cells) was from the Deutsche Sammlung von Mikroorganismen and Zellkulturen GmbH (DSMZ, Braunschweig, Germany). MM.1S (human multiple myeloma B cells) was previously established in the laboratory of Prof. Steven. T. Rosen (Robert H. Lurie Comprehensive Cancer Center, Northwestern University). IM-9 (human lymphoblast B cells), MDA-MB-231 (human breast adenocarcinoma cells), OVCAR-3 (human ovary adenocarcinoma cells), KB (human nasopharyngeal epidermal carcinoma cells, FR), and MCF-7 (human breast carcinoma cells, FR^-) (Sonvico et al. J. Drug Del. Sci. Tech. 2005, 15, 407-410, Chen et al. Mol. Cancer Ther. 2009, in press., herein incorporated by reference in their entireties) were purchased from ATCC (Manassas, Va., USA). All Cells were maintained at 37° C. in an incubator with 5% CO2 and harvested in the exponential phase of growth. SU-DHL-4, IM-9, and MM.1S cells were cultured in RPMI-1640 supplemented with 10% FBS, 2 mM glutamine, 100 units/mL penicillin-streptomycin, and 2.5 μg/mL Amphotericin B. MDA-MB-231 cells were cultured in DMEM/F12 supplemented with 5% cds-FBS, 2 mM glutamine, 100 units/mL penicillin-streptomycin, and 0.1% human insulin solution. OVCAR-3 cells were cultured in RPMI-1640 supplemented with 20% FBS, 100 units/mL penicillin-streptomycin, and 0.1% human insulin solution. MCF-7 cells was cultured in EMEM supplemented with 10% FBS, 2 mM glutamine, 100 units/mL penicillin-streptomycin and 2.5 μg/mL Amphotericin B. KB cells were cultured in EMEM supplemented with 10% FBS and 50 units/mL penicillin-streptomycin. For folate-targeting experiments, KB cells were transferred into folate-deficient RPMI-1640 medium for more than one week before each experiment (Lee et al. J. Biol. Chem. 1994, 269, 3198-3204, herein incorporated by reference in its entirety).
(§2) The MTS assay is one of most high throughput and economical assays for detecting viability of cancer cells. Briefly, SU-DHL-4 and IM-9 (40,000 cells/mL), and MM.1S (250,000 cells/mL) were treated with drugs and plated in quadruplicate (100 uL/well) onto 96-well plates. For MDA-MB-231 and OVCAR-3, 20,000 cells/mL were plated in quadruplicate (100 uL/well) onto 96-well plates, incubated overnight and then treated with drugs. After incubation for the indicated period at 37° C., the MTS/PMS solution (20 μL/well) was added to each well and the plates were further incubated for 4 h at 37° C. before reading the absorbance at 490 nm. Cell growth rates were expressed as a function of drug concentration on a logarithmic scale. The IC50 values (the drug concentration required for 50% inhibition of cell growth) were determined by fitting to a sigmoidal dose-response curve using Origin 6.0 software (Microcal Software, Inc., Northampton, USA). In the case of the 1.5 h (SEE FIG. 8B) or 2 h (SEE FIG. 9B) time periods, the cells treated with drugs were first incubated for 1.5 h or 2 h at 37° C., then washed twice with PBS to remove un-associated drugs or liposomes, and further incubated up to 48 h (FIG. 8b) or 72 h (FIG. 9b) in drug-free medium, followed by the MTS assay.

[2] = tested on: MDA-MB-231 (human breast adenocarcinoma cells); format: cell-based; conditions: 72 h drug treatment
Text: as §1, §2

[3] = tested on: SU-DHL-4 (human lymphoma B cells); format: cell-based; conditions: 48 h drug treatment
Text: as §1, §2

[4] = tested on: MM.1S (human multiple myeloma B cells); test: MTS cell proliferation cytotoxicity assay; format: cell-based; conditions: 72 h drug treatment
Text: as §1, §2

[5] = tested on: OVCAR-3 (human ovary adenocarcinoma cells); test: MTS cell proliferation cytotoxicity assay; format: cell-based; conditions: 72 h drug treatment
Text: as §1, §2

[6] = tested on: KB (FR+) human nasopharyngeal epidermal carcinoma cells; test: Guava ViaCount cytotoxicity assay, folate-targeted liposomes; format: cell-based
Text: as §1
(§3) The in vitro cytotoxicities of folate-targeted liposomes against KB and MCF-7 cells were determined by Guave ViaCount assay (Stearns et al. Cancer Res. 2006, 66, 673-681, Donaldson et al. Cell Death Differ 2009, 16, 125-138, herein incorporated by reference in their entireties) (The MTS assay is not applicable in this case because the folate moiety interferes with the reactions of MTS/PMS agents and seriously impairs accuracy of cell viability (Chen et al. Mol. Cancer Ther. 2009, in press.)). Cells were first plated in 48-well plates at a density of 30,000-60,000 cells/mL, 0.2 mL per well. After 24 h at 37° C., the media were replaced with drug solutions. Cells were thus incubated with drugs continuously for 72 h, or exposed to drugs for 3 h at 37° C., then washed with PBS ×2 and further incubated up to 72 h in drug-free medium. The same Pt concentrations of aqua-cisPt were used as in f-NB(As, Pt). Cell viability was determined by Guave ViaCount (Stearns et al. Cancer Res. 2006, 66, 673-681, Donaldson et al. Cell Death Differ 2009, 16, 125-138, herein incorporated by reference in their entireties), using a Guava EasyCyte Mini flow cytometer (Guava Technologies, Hayward, Calif.). Cells, after released from plates by trypsinization (using 0.05% trypsin/0.02% EDTA), were stained with the Guava Viacount agent, which contains two fluorescent dyes, one cell permeable and one impermeable. This allows viable and dead cell numbers to be accurately determined by Guava Viacount software. Cell growth rates were expressed as a function of drug concentration on a logarithmic scale. The IC50 values (the drug concentration required for 50% inhibition of cell growth) were determined by fitting to a sigmoidal dose-response curve using Origin 6.0 (Microcal Software, Inc., Northampton, USA) (SEE FIGS. 12F-G and Table 3).

[7] = tested on: MCF-7 (FR−) human breast carcinoma cells; test: as above; format: cell-based
Text: as §1, §3

MCF-7 (FR−) cells = test: Quantitative cellular drug uptake by ICP-MS; format: cell-based, human; conditions: 3 h at 37° C.
Text: as §1, with “OVCAR-3 cells were cultured in RPMI-1640 supplemented with 20% FBS, 100 units/mL penicillin-streptomycin, and 0.1% human insulin solution. MCF-7 cells was cultured in EMEM supplemented with 10% FBS, 2 mM glutamine, 100 units/mL penicillin-streptomycin and 2.5 μg/mL Amphotericin B. KB cells were cultured in EMEM supplemented with 10% FBS and 50 units/mL penicillin-streptomycin. For folate-targeting experiments, KB cells were transferred into folate-deficient RPMI-1640 medium for more than one week before each experiment (Lee et al. J. Biol. Chem. 1994, 269, 3198-3204, herein incorporated by reference in its entirety).” left out
Cells were plated, 24 h before each experiment, in 6-well plates with 500,000 cells per well. […] Cell-associated drug was expressed as As and Pt atoms per cell (SEE FIG. 12E and Table 4.

[8] = tested on: human lymphoma cell line SU-DHL-4 (CD20-positive); test: MTS cytotoxicity assay of liposomal Ni-arsenic and Rituxan conjugate; format: cell-based; conditions: 72 h (three days) at 37° C.; read-out: IC50 (arsenic level), SU-DHL-4
Protocol: The human lymphoma B cell line of SU-DHL-4 (CD20-positive) was obtained from the American Type Culture Collection (Rockville, MD, USA). Cells were cultured in RPMI 1640 (Invitrogen Corporation) supplemented with 10% fetal bovine serum, 2 mM glutamine, 100 units/mL penicillim, 100 ug/mL streptomycin, and 2.5 ug/mL fungizone. Cells were maintained at 37° C. in an incubator with 5% CO2 and harvested in the exponential phase of growth.
Cells (25,000 cells/mL) were treated with various drugs and plated in 96-well plates. After incubation for 72 h at 37° C., the MTS solution (20 uL/well) was added to each well and the plates were further incubated for 4 h at 37° C. before the absorbance readings at 490 nm.
In a parallel experiment, SU-DHL-4 cells (100,000 cells/mL) were treated with various drugs and plated in 96-well plates. After incubation at 37° C. for 20 min, cells were washed twice using 200 uL/well of PBS and refilled with 100 uL/well of fresh medium and incubated for an additional 71.6 h. The MTS solution (20 uL/well) was added to each well and the plates were further incubated for 4 h at 37° C. before taking the absorbance readings at 490 nm.

Compound: Arsenic trioxide [As2O3]
- IC50 ([1]; based on As concentration): 2.1 ± 0.03 µM
- IC50 ([2]; based on As concentration): 10 µM
- IC50 ([3]; based on As concentration): 3.7 µM
- IC50 ([4]; based on As concentration): 0.58 µM
- IC50 ([5]; based on As concentration): 2.7 ± 1.1 µM
- IC50 ([6]; continuous 72 h incubation, As concentration, read-out: KB (FR^+), IC50 (μM), 72 h): 5.2 ± 1 µM
- IC50 ([6]; read-out: KB (FR^+), IC50 (μM), 3 h, 3 h exposure, washed, drug-free medium up to 72 h, As concentration): > 200 µM
- IC50 ([7]; continuous 72 h incubation, As concentration, read-out: MCF-7 (FR^−), IC50 (μM), 72 h): 6.9 ± 1.7 µM
- IC50 ([7]; read-out: MCF-7 (FR^−), IC50 (μM), 3 h, 3 h exposure, washed, drug-free medium up to 72 h, As concentration): 63.7 ± 22.3 µM
- Cellular uptake, MCF-7 (FR^−), As (MCF-7 (FR−) cells; 10 μM arsenic): 9.4 ± 2.3 ×10^7 atoms/cell
- IC50 [8]: 1450 nM

Compound: CC(=O)[O-].CC(=O)[O-].N.N.O.O.[Pt+2] [Aqua-cisPt, [cis-(NH3)2Pt(OH2)2](OAc)2]
- IC50 ([1]; based on Pt concentration): 1 ± 0.01 µM
- IC50 ([2]; based on Pt concentration): 17.9 µM
- IC50 ([3]; based on Pt concentration): 5.5 µM
- IC50 ([5]; based on Pt concentration): 2.6 ± 0.8 µM
- IC50 ([6]; continuous 72 h incubation, Pt concentration, read-out: KB (FR^+), IC50 (μM), 72 h): 1.3 ± 0.2 µM
- IC50 ([6]; read-out: KB (FR^+), IC50 (μM), 3 h, 3 h exposure, washed, drug-free medium up to 72 h, Pt concentration): 9.7 ± 2.5 µM
- IC50 ([7]; continuous 72 h incubation, Pt concentration, read-out: MCF-7 (FR^−), IC50 (μM), 72 h): 12.2 ± 0.4 µM
- IC50 ([7]; read-out: MCF-7 (FR^−), IC50 (μM), 3 h, 3 h exposure, washed, drug-free medium up to 72 h, Pt concentration): 88.9 ± 14.4 µM
- Cellular uptake, MCF-7 (FR^−), Pt (MCF-7 (FR−) cells; 10 μM arsenic / 8 μM Pt): 0.24 ± 0.07 ×10^7 atoms/cell

Compound: N.N.[Cl][Pt][Cl] [CisPt, cis-diamine dichloroplatinum(II)]
- IC50 ([1]; based on Pt concentration): 0.6 ± 0.2 µM
- IC50 ([2]; based on Pt concentration): 14 µM
- IC50 ([3]; based on Pt concentration): 3.5 µM
- IC50 ([4]; based on Pt concentration): 1.43 µM
- IC50 ([5]; based on Pt concentration): 2 ± 0.01 µM
